Laboratory results published in patent US20260265262A1, “CDK2 INHIBITORS AND METHODS OF USING THE SAME” (Cedilla Therapeutics, Inc., priority 2022, published 2026).
Where two headings read alike, the source gives them in different places.

Columns and labels:
CDK2/Cyclin E1 = CDK2/Cyclin E1 (Homo sapiens, UniProt P24941); test: ADP-Glo Luminescent Kinase Assay (CDK2/E1-37C); assay type: biochemical; conditions: 0.18 nM CDK2/Cyclin E1, 100 μM ATP, 1.5 μM Histone H1, 37° C., 60 min pre-incubation
Description: Inhibition of CDK2/Cyclin E1 activity by the presence of small molecules was evaluated using ADP-Glo Luminescent Kinase Assay (Promega). Activated CDK2/Cyclin E1 was incubated with its substrate Histone H1 (SignalChem H10-54N) in the kinase reaction buffer (100 μM ATP, 50 mM HEPES pH 7.5, 10 mM MgCl2, 1 mM EDTA, 2 mM DTT, 0.01% Brij35, 0.5 mg/mL BSA). Luminescence was recorded with an Envision plate reader (PerkinElmer).
Dose titrations of inhibitors in 100% DMSO were combined with 0.36 nM CDK2/Cyclin E1 in reaction buffer. The mixtures were incubated for 60 minutes at 37° C. before the addition of ATP and Histone H1 substrate to initiate the kinase reaction. The final conditions were 0.18 nM CDK2/Cyclin E1, 100 μM ATP, and 1.5 μM Histone H1. The reactions were incubated at 37° C. for 90 minutes before being stopped with the addition of ADP-Glo reagent. This mixture was incubated at room temperature for 60 minutes before Kinase Detection Solution is added to generate luminescence. The stopped reactions were analyzed on an Envision plate reader. The conversion ratios were normalized to yield % activity, plotted against compound concentration, and fit to a four-parameter equation to determine the IC50 for each compound.

Kuramochi cells = test: IncuCyte cell proliferation assay; assay type: cell-based
Description: IncuCyte® assay was used to measure the effect of disclosed compounds on cell proliferation. Fluorescent microscopy images of cells were taken immediately after compound treatment and 72 hours later. Image analysis software was used to obtain cell counts as a function of compound concentration. Kuramochi cells labeled with mApple-H2B were seeded on 384-well assay-ready plates. Plates were placed in an IncuCyte® (Sartorius) and scanned at 0 and 72 hours. IncuCyte® software was used to count the number of fluorescent nuclei in each well. The fold change in cell count from 0 to 72 hours in wells treated with increasing compounds concentrations (10 pts, 1/2 log dilution, 20 μM top concentration) was normalized to DMSO control wells. The normalized cell counts were fit with dose response curves and a […] was calculated.

[1] = read-out: ADPGLO (CDK2/E1-37C): IC50
[2] = Kuramochi cells labeled with mApple-H2B, cell count 0 to 72 hours, 20 μM top concentration, read-out: IncuCyte Kuramochi RB-WT: IC50
[3] = read-out: IncuCyte Kuramochi RB-WT: IC50 (μM)

Compound | IC50 (CDK2/Cyclin E1; [1]) | IC50 (Kuramochi cells; [2]) | IC50 (CDK2/Cyclin E1; ADPGLO (CDK2/E1-37C): IC50 (μM)) | IC50 (Kuramochi cells; [3])
C[C@@H](OCC12CCC(CC1)OC2)[C@H](NC(=O)[C@@H]1CN(C(=O)c2cnn(Cc3ccc(C(F)(F)F)cc3)c2)CC12CN(C(=O)C1(C(F)(F)F)CC1)C2)C(=O)NCCc1nnn[nH]1 [Example I-16] | 5 to 10 µM | > 20 µM | – | –
N#Cc1ccc(Cn2cc(C(=O)N3CC(C(=O)N[C@H](COCC45CCC(CC4)OC5)c4ccc(C(=O)O)cc4)C4(C3)CN(C(=O)C3(C(F)(F)F)CC3)C4)cn2)cc1 (stereo partly drawn) [Example I-19] | > 10 µM | > 20 µM | – | –
COC(=O)c1ccc([C@@H](COCC23CCC(CC2)OC3)NC(=O)C2CN(C(=O)c3cnn(Cc4ccc(C#N)cc4)c3)CC23CN(C(=O)C2(C(F)(F)F)CC2)C3)cc1 (stereo partly drawn) [Example I-20] | 5 to 10 µM | > 20 µM | – | –
COC(=O)CC1CN(C(=O)[C@@H]2CN(C(=O)c3cncs3)CC23CN(C(=O)[C@H]2CC2(C)C)C3)CCN1CC1CCCCC1 (stereo partly drawn) [Example I-21] | > 10 µM | > 20 µM | – | –
N#Cc1ccc(Cn2cc(C(=O)N3CC(C(=O)N[C@@H](COCC45CCC(CC4)OC5)c4ccc(C(=O)O)cc4)C4(C3)CN(C(=O)C3(C(F)(F)F)CC3)C4)cn2)cc1 (stereo partly drawn) [Example I-23, 4-((1R)-2-((2-oxabicyclo[2.2.2]octan-4-yl)methoxy)-1-(6-(1-(4-cyanobenzyl)-1H-pyrazole-4-carbonyl)-2-(1-(trifluoromethyl)cyclopropane-1-carbonyl)-2,6-diazaspiro[3.4]octane-8-carboxamido)ethyl)benzoic acid] | > 10 µM | > 20 µM | – | –
COC(=O)c1ccc([C@H](COCC23CCC(CC2)OC3)NC(=O)C2CN(C(=O)c3cnn(Cc4ccc(C#N)cc4)c3)CC23CN(C(=O)C2(C(F)(F)F)CC2)C3)cc1 (stereo partly drawn) [Example I-24, methyl 4-((1R)-2-((2-oxabicyclo[2.2.2]octan-4-yl)methoxy)-1-(6-(1-(4-cyanobenzyl)-1H-pyrazole-4-carbonyl)-2-(1-(trifluoromethyl)cyclopropane-1-carbonyl)-2,6-diazaspiro[3.4]octane-8-carboxamido)ethyl)benzoate] | 5 to 10 µM | > 20 µM | – | –
COP(=O)(CCNC(=O)[C@@H](NC(=O)[C@@H]1CN(C(=O)c2cnn(Cc3ccccc3)c2)CC12CN(C(=O)[C@H]1CC1(C)C)C2)[C@@H](C)OCC1CCCCC1)OC [Example I-27] | – | – | < 0.5 µM | 0.5 to 5 µM
C[C@@H](OCC1CCCCC1)[C@H](NC(=O)[C@@H]1CN(C(=O)c2cnn(Cc3ccc(C(F)(F)F)cc3)c2)CC12CN(C(=O)[C@H]1CC1(C)C)C2)C(=O)N1CCC(c2ccc(C(=O)O)cc2)CC1 [Example I-29] | < 0.5 µM | – | – | 0.5 to 5 µM
C[C@@H](OCC12CCC(CC1)OC2)[C@H](NC(=O)[C@@H]1CN(C(=O)c2cncs2)CC12CN(C(=O)C1(C(F)(F)F)CC1)C2)C(=O)N1CCC(c2nccs2)CC1 [Example I-34, (S)—N-((2S,3R)-3-((2-oxabicyclo[2.2.2]octan-4-yl)methoxy)-1-oxo-1-(4-(thiazol-2-yl)piperidin-1-yl)butan-2-yl)-6-(thiazole-5-carbonyl)-2-(1-(trifluoromethyl)cyclopropane-1-carbonyl)-2,6-diazaspiro[3.4]octane-8-carboxamide] | < 0.5 µM | 0.5 to 5 µM | – | –
C[C@@H](OCC1CCCCC1)[C@H](NC(=O)[C@@H]1CN(C(=O)c2cnn(Cc3ccccc3)c2)CC12CN(C(=O)[C@H]1CC1(C)C)C2)C(=O)N1CCCC[C@@H]1C(=O)O [Example I-35] | < 0.5 µM | > 20 µM | – | –

Second part, led by results:

IC50 (CDK2/Cyclin E1; [1]) | Compound | IC50 (Kuramochi cells; [2]) | IC50 (CDK2/Cyclin E1; ADPGLO (CDK2/E1-37C): IC50 (μM)) | IC50 (Kuramochi cells; [3])
< 0.5 µM | C[C@@H](OCC12CCC(CC1)OC2)[C@H](NC(=O)[C@@H]1CN(C(=O)c2cnn(Cc3ccccc3C(=O)O)c2)CC12CN(C(=O)C1(C(F)(F)F)CC1)C2)C(=O)N1CCN(Cc2ccc(C(F)(F)F)cc2)CC1 [Example I-14, 2-((4-((S)-8-(((2S,3R)-3-((2-oxabicyclo[2.2.2]octan-4-yl)methoxy)-1-oxo-1-(4-(4-(trifluoromethyl)benzyl)piperazin-1-yl)butan-2-yl)carbamoyl)-2-(1-(trifluoromethyl)cyclopropane-1-carbonyl)-2,6-diazaspiro[3.4]octane-6-carbonyl)-1H-pyrazol-1-yl)methyl)benzoic acid] | > 20 µM | – | –
< 0.5 µM | COC(=O)C1CCN(C(=O)[C@@H](NC(=O)[C@@H]2CN(C(=O)c3cnn(Cc4ccccc4)c3)CC23CN(C(=O)[C@H]2CC2(C)C)C3)[C@@H](C)OCC2CCCCC2)CC1 [Example I-17] | < 0.5 µM | – | –
< 0.5 µM | C[C@@H](OCC1CCCCC1)[C@H](NC(=O)[C@@H]1CN(C(=O)c2cnn(Cc3ccccc3)c2)CC12CN(C(=O)[C@H]1CC1(C)C)C2)C(=O)NS(C)(=O)=O [Example I-18] | > 20 µM | – | –
< 0.5 µM | COc1ccc(S(=O)(=O)NC(=O)[C@@H](NC(=O)[C@@H]2CN(C(=O)c3cnn(Cc4ccccc4)c3)CC23CN(C(=O)[C@H]2CC2(C)C)C3)[C@@H](C)OCC2CCCCC2)cc1 [Example I-22] | 0.5 to 5 µM | – | –
< 0.5 µM | C[C@@H](OCC12CCC(CC1)OC2)[C@H](NC(=O)[C@@H]1CN(C(=O)c2cnn(Cc3ccc(C(F)(F)F)cc3)c2)CC12CN(C(=O)C1(C(F)(F)F)CC1)C2)C(=O)N1CCC(C#N)CC1 [Example I-25, (S)—N-((2S,3R)-3-((2-oxabicyclo[2.2.2]octan-4-yl)methoxy)-1-(4-cyanopiperidin-1-yl)-1-oxobutan-2-yl)-6-(1-(4-(trifluoromethyl)benzyl)-1H-pyrazole-4-carbonyl)-2-(1-(trifluoromethyl)cyclopropane-1-carbonyl)-2,6-diazaspiro[3.4]octane-8-carboxamide] | > 20 µM | – | –
< 0.5 µM | C[C@@H](OCC1CCCCC1)[C@H](NC(=O)[C@@H]1CN(C(=O)c2cnn(Cc3ccccc3)c2)CC12CN(C(=O)[C@H]1CC1(C)C)C2)C(=O)NS(=O)(=O)c1ccc(F)cc1F [Example I-26, (S)-6-(1-benzyl-1H-pyrazole-4-carbonyl)-N-((2S,3R)-3-(cyclohexylmethoxy)-1-((2,4-difluorophenyl)sulfonamido)-1-oxobutan-2-yl)-2-((S)-2,2-dimethylcyclopropane-1-carbonyl)-2,6-diazaspiro[3.4]octane-8-carboxamide] | 0.5 to 5 µM | – | –
< 0.5 µM | C[C@@H](OCC1CCCCC1)[C@H](NC(=O)[C@@H]1CN(C(=O)c2cnn(Cc3ccccc3)c2)CC12CN(C(=O)[C@H]1CC1(C)C)C2)C(=O)N1CCN(c2ccc(C(=O)O)cc2)CC1 [Example I-28] | 0.5 to 5 µM | – | –
< 0.5 µM | C[C@@H](OCC1CCCCC1)[C@H](NC(=O)[C@@H]1CN(C(=O)c2cnn(CC3CCCCC3)c2)CC12CN(C(=O)[C@H]1CC1(C)C)C2)C(=O)N1CCC(c2ccc(C(=O)O)cc2)CC1 [Example I-30, 4-(1-(O-(cyclohexylmethyl)-N—((S)-6-(1-(cyclohexylmethyl)-1H-pyrazole-4-carbonyl)-2-((S)-2,2-dimethylcyclopropane-1-carbonyl)-2,6-diazaspiro[3.4]octane-8-carbonyl)-L-threonyl)piperidin-4-yl)benzoic acid] | 0.5 to 5 µM | – | –
< 0.5 µM | COC(=O)c1ccc(N2CCN(C(=O)[C@@H](NC(=O)[C@@H]3CN(C(=O)c4cnn(Cc5ccccc5)c4)CC34CN(C(=O)[C@H]3CC3(C)C)C4)[C@@H](C)OCC3CCCCC3)CC2)cc1 [Example I-31] | < 0.5 µM | – | –
< 0.5 µM | Cc1oc(=O)oc1COC(=O)C(C)(C)CNC(=O)[C@@H](NC(=O)[C@@H]1CN(C(=O)c2cnn(Cc3ccccc3)c2)CC12CN(C(=O)[C@H]1CC1(C)C)C2)[C@@H](C)OCC1CCCCC1 [Example I-32, (5-methyl-2-oxo-1,3-dioxol-4-yl)methyl 3-((2S,3R)-2-((S)-6-(1-benzyl-1H-pyrazole-4-carbonyl)-2-((S)-2,2-dimethylcyclopropane-1-carbonyl)-2,6-diazaspiro[3.4]octane-8-carboxamido)-3-(cyclohexylmethoxy)butanamido)-2,2-dimethylpropanoate] | 5 to 20 µM | – | –
< 0.5 µM | C[C@@H](OCC1CCCCC1)[C@H](NC(=O)[C@@H]1CN(C(=O)c2cnn(Cc3ccccc3)c2)CC12CN(C(=O)[C@H]1CC1(C)C)C2)C(=O)NCCC(=O)NS(C)(=O)=O [Example I-33, (S)-6-(1-benzyl-1H-pyrazole-4-carbonyl)-N-((2S,3R)-3-(cyclohexylmethoxy)-1-((3-(methylsulfonamido)-3-oxopropyl)amino)-1-oxobutan-2-yl)-2-((S)-2,2-dimethylcyclopropane-1-carbonyl)-2,6-diazaspiro[3.4]octane-8-carboxamide] | > 20 µM | – | –
